Experimental data from ChEMBL document CHEMBL1145120, “Molecular modeling of the three-dimensional structure of dopamine 3 (D3) subtype receptor: discovery of novel and potent D3 ligands through a hybrid pharmacophore- and structure-based database searching approach” (J Med Chem, 2003).

biological target: T1, D(3) dopamine receptor (Homo sapiens, UniProt P35462); assay: Compound was measured for its ability to compete with [3H]spiperone binding to the human Dopamine receptor D3 transfected in CHO cells; type: cell-based
T1 sequence (P35462 whole entry): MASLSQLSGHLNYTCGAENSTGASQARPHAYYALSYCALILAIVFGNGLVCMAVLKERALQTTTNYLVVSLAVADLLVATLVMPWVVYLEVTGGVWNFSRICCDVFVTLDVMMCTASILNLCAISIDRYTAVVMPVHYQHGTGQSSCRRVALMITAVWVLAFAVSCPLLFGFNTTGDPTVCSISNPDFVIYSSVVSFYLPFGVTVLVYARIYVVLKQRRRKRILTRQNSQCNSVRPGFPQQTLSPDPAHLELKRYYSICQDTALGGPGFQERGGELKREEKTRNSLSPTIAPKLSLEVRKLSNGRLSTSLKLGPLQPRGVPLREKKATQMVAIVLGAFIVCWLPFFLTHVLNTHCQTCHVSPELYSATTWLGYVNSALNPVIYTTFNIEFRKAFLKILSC

In order of falling Ki:
1. CCN1CCC[C@H]1CNC(=O)c1c(O)c(Cl)cc(Cl)c1OC [RACLOPRIDE]  3.7 nM
2. CCCN1CCOC2c3cc(O)ccc3OC[C@H]21 (some centres undefined)  1.1 nM

biological target: T1, D(3) dopamine receptor; assay: not given

Molecule `CCCCN1CCCC1CNC(=O)c1cc(C#N)c2ccccc2c1OC` (centres undefined) [NAFADOTRIDE] has a Ki of 0.81 nM.

biological target: T1, D(3) dopamine receptor; assay: not given; remark: another data set of the same source

In order of falling Ki:
1. CCCN(CCC)CN1C(=O)c2ccccc2C1=O  10000 nM
2. CCCCN(CCCC)Cc1c(C)nc2cc(OC)ccc2c1O  10000 nM
3. c1ccc2c3c([nH]c2c1)CCN1CCN(CCc2ccncc2)CC31 (centres undefined)  10000 nM
4. CCC(=O)OC1(c2ccccc2)CCN(CCC(=O)c2ccccc2)CC1C (centres undefined)  10000 nM
5. CCn1c2ccccc2c2cc(NCCCN(C)C)ccc21  10000 nM
6. CC(=O)NCC1(c2ccccc2)CCN(CCCC(=O)c2ccc(F)cc2)CC1 [ACEPERONE]  10000 nM
7. CCOc1ccc(NC(=O)C2CCCN(CCc3ccccc3)C2)cc1 (centres undefined)  10000 nM
8. CCCCCN1CCN(C(CC(=O)c2ccccc2)C(=O)c2ccccc2)CC1 (centres undefined)  10000 nM
9. CCCCN1CN(CCCC)CN(C(=S)c2c(Cl)cccc2Cl)C1  10000 nM
10. CCCCN(CC)CC(C(C)=O)C1=C(O)OC2C=CC=CC2C1=O (centres undefined)  10000 nM
11. CCCCN1CSC(=S)N(Cc2ccccc2)C1  10000 nM
12. N#CCCN(CCCN1CCOCC1)CN1C(=O)c2ccccc2C1=O  10000 nM
13. CCCCCCCN1CCC(C(=O)CC)(c2cccc(O)c2)CC1  2610 nM
14. OC(CCCN1CCN2CCc3[nH]c4ccccc4c3C2C1)c1ccc(F)cc1 (centres undefined)  2410 nM
15. Cc1ccc2c(c1)Sc1c(ccc3ccccc13)N2CCCN(C)C  1420 nM
16. CCN(CC)CCCN(C)Cc1c(-c2ccccc2)oc(-c2ccccc2)c1Cl  1380 nM
17. CCCN(CCC)CCC(O)c1cc2c(c3ccccc13)CCCC2 (centres undefined)  1260 nM
18. O=C(OC1(c2nccc3ccccc23)CCN(CCc2ccccc2)CC1)c1ccccc1  1000 nM
19. CCCCN1C/C(=C\c2ccc(Br)cc2)C(=O)/C(=C/c2ccc(Br)cc2)C1  1000 nM
20. O=C(CCN1CCN2c3ccccc3CCC2C1)c1ccc(F)cc1 (centres undefined)  465 nM
21. Cc1ccc(C)c2c1Sc1c(ccc3ccccc13)N2CCCN(C)C  442 nM
22. CCC(=O)OC1(c2ccccc2)CCN(CCCC(=O)c2ccccc2)CC1  429 nM
23. O=C(CCCCN1CCN2c3ccccc3CCC2C1)c1ccccc1 (centres undefined)  297 nM
24. O=C(CCCN1CCN2c3ccccc3CCC2C1)c1ccc(F)cc1 (centres undefined)  83.5 nM
25. O=c1[nH]c2ccccc2n1CCCN1CCN(C(c2ccccc2)c2ccccc2)CC1 [OXATOMIDE]  62.7 nM
26. CN(C)C(=O)C1(c2ccc(Cl)cc2)CCN(CCCC(=O)c2ccc(F)cc2)CC1 [AMIPERONE]  43.2 nM
27. O=C(CCCN1CCN2Cc3[nH]c4ccccc4c3CC2C1)c1ccc(F)cc1 (centres undefined) [BIRIPERONE]  11 nM

biological target: T1, D(3) dopamine receptor; assay: biochemical

In order of falling Ki:
1. CCCN[C@@H]1CCc2c(OC)cccc2[C@@H]1C  70 nM
2. OC1(c2ccc(Cl)cc2)CCN(Cc2c[nH]c3ccccc23)CC1  60 nM
3. CCN(CC)CCNC(=O)c1cc(Cl)c(N)cc1OC [METOCLOPRAMIDE]  27 nM
4. CCCN(CCC)C1CCc2cc3c(cc2C1)OCC3 (centres undefined)  13 nM
